# In PubChem BioAssay (NCI):
#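 Dose response: 5 concentrations. Exposure: 48 h. Format: 96-well plates. Endpoint: linear interpolation; highest concentration if not reached. At the TGI there is no net growth.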
# Key:
# Assay in all cases: DTP human tumour cell line panel, 48 h
# [1] = test system: HS 578T breast
# [2] = test system: COLO 205 colon
# [3] = test system: NCI/ADR-RES ovarian
# [4] = test system: NCI-H23 lung
# [5] = test system: A549 NSCLC
# [6] = test system: SN12C renal
# [7] = test system: CCRF-CEM leukemia
# [8] = test system: UACC-62 melanoma
# [9] = test system: RPMI-8226 leukemia
# [10] = test system: K-562 leukemia
# [11] = test system: ACHN renal
# [12] = test system: CAKI-1 renal
# [13] = test system: OVCAR-3 ovarian
# [14] = test system: MALME-3M melanoma
# [15] = test system: HL-60(TB) leukemia
# [16] = test system: NCI-H226 lung
# [17] = test system: SR leukemia
# [18] = test system: SK-MEL-2 melanoma
# [19] = test system: SF-268 CNS
# [20] = test system: HCT-15 colon
# [21] = test system: SK-MEL-28 melanoma
# [22] = test system: PC-3 prostate
# [23] = test system: MOLT-4 leukemia
# [24] = test system: IGROV1 ovarian
# [25] = test system: MDA-MB-435
# [26] = test system: OVCAR-4 ovarian
# [27] = test system: HOP-62 NSCLC
# [28] = test system: NCI-H522 lung
# [29] = test system: HOP-92 NSCLC
# [30] = test system: TK-10 renal
# [31] = test system: SK-MEL-5 melanoma
# [32] = test system: BT-549 breast
# [33] = test system: SK-OV-3 ovarian
# [34] = test system: UO-31 renal
# [35] = test system: 786-0 renal
# [36] = test system: U251 CNS
# [37] = test system: DU-145 prostate
# [38] = test system: MCF7 breast
# [39] = test system: KM12 colon
# [40] = test system: MDA-N
# [41] = test system: OVCAR-8 ovarian
# [42] = test system: EKVX NSCLC
# [43] = test system: UACC-257 melanoma
# [44] = test system: HCT-116 colon
# [45] = test system: M14 melanoma
# [46] = test system: SF-539 CNS
# [47] = test system: HT29 colon
# [48] = test system: MDA-MB-231 breast
# [49] = test system: SNB-19 CNS
# [50] = test system: A498 renal
# [51] = test system: LOX IMVI melanoma
# [52] = test system: NCI-H460 lung
# [53] = test system: SW-620 colon
# [54] = test system: SF-295 CNS
# [55] = test system: HCC-2998 colon
# [56] = test system: RXF 393 renal
# [57] = test system: SNB-75 CNS
# [58] = test system: OVCAR-5 ovarian
# [59] = test system: T-47D breast
smiles,measurement,setting,value
COc1cccc(NC(=O)CC(=O)Nc2cccc(OC)c2)c1,TGI,[1],> 100 µM
same,TGI,[2],> 100 µM
same,TGI,[3],> 100 µM
same,TGI,[4],> 100 µM
same,TGI,[5],> 100 µM
same,TGI,[6],> 100 µM
same,TGI,[7],> 100 µM
same,TGI,[8],> 100 µM
same,TGI,[9],> 100 µM
same,TGI,[10],> 100 µM
same,TGI,[11],> 100 µM
same,TGI,[12],> 100 µM
same,TGI,[13],> 100 µM
same,TGI,[14],> 100 µM
same,TGI,[15],> 100 µM
same,TGI,[16],> 100 µM
same,TGI,[17],> 100 µM
same,TGI,[18],> 100 µM
same,TGI,[19],> 100 µM
same,TGI,[20],> 100 µM
same,TGI,[21],> 100 µM
same,TGI,[22],> 100 µM
same,TGI,[23],> 100 µM
same,TGI,[24],> 100 µM
same,TGI,[25],> 100 µM
same,TGI,[26],> 100 µM
same,TGI,[27],> 100 µM
same,TGI,[28],> 100 µM
same,TGI,[29],> 100 µM
same,TGI,[30],> 100 µM
same,TGI,[31],> 100 µM
same,TGI,[32],> 100 µM
same,TGI,[33],> 100 µM
same,TGI,[34],> 100 µM
same,TGI,[35],> 100 µM
same,TGI,[36],> 100 µM
same,TGI,[37],> 100 µM
same,TGI,[38],> 100 µM
same,TGI,[39],> 100 µM
same,TGI,[40],> 100 µM
same,TGI,[41],> 100 µM
same,TGI,[42],> 100 µM
same,TGI,[43],> 100 µM
same,TGI,[44],> 100 µM
same,TGI,[45],> 100 µM
same,TGI,[46],> 100 µM
same,TGI,[47],> 100 µM
same,TGI,[48],> 100 µM
same,TGI,[49],> 100 µM
same,TGI,[50],> 100 µM
same,TGI,[51],> 100 µM
same,TGI,[52],> 100 µM
same,TGI,[53],> 100 µM
same,TGI,[54],> 100 µM
same,TGI,[55],> 100 µM
CN1CCN(C(=S)N(C(=O)c2cccs2)c2ccccc2)CC1,TGI,[1],> 100 µM
same,TGI,[2],> 100 µM
same,TGI,[4],> 100 µM
same,TGI,[5],> 100 µM
same,TGI,[6],> 100 µM
same,TGI,[7],> 100 µM
same,TGI,[8],> 100 µM
same,TGI,[9],> 100 µM
same,TGI,[10],> 100 µM
same,TGI,[11],> 100 µM
same,TGI,[13],> 100 µM
same,TGI,[14],> 100 µM
same,TGI,[15],> 100 µM
same,TGI,[16],> 100 µM
same,TGI,[17],> 100 µM
same,TGI,[18],> 100 µM
same,TGI,[19],> 100 µM
same,TGI,[20],> 100 µM
same,TGI,[21],> 100 µM
same,TGI,[23],> 100 µM
same,TGI,[24],> 100 µM
same,TGI,[25],> 100 µM
same,TGI,[26],> 100 µM
same,TGI,[56],> 100 µM
same,TGI,[28],> 100 µM
same,TGI,[29],> 100 µM
same,TGI,[30],> 100 µM
same,TGI,[31],> 100 µM
same,TGI,[32],> 100 µM
same,TGI,[34],> 100 µM
same,TGI,[35],> 100 µM
same,TGI,[57],> 100 µM
same,TGI,[36],> 100 µM
same,TGI,[37],> 100 µM
same,TGI,[38],> 100 µM
same,TGI,[39],> 100 µM
same,TGI,[40],> 100 µM
same,TGI,[41],> 100 µM
same,TGI,[43],> 100 µM
same,TGI,[45],> 100 µM
same,TGI,[47],> 100 µM
same,TGI,[48],> 100 µM
same,TGI,[58],> 100 µM
same,TGI,[49],> 100 µM
same,TGI,[51],> 100 µM
same,TGI,[52],> 100 µM
same,TGI,[59],> 100 µM
same,TGI,[53],> 100 µM
same,TGI,[55],> 100 µM
Cc1ccc(-c2c(C#N)c(N)[nH]c(=S)c2C#N)cc1,TGI,[1],51.4 µM
same,TGI,[2],69 µM
same,TGI,[3],> 100 µM
same,TGI,[4],> 100 µM
same,TGI,[5],> 100 µM
same,TGI,[6],76 µM
same,TGI,[8],> 100 µM
same,TGI,[9],65.8 µM
same,TGI,[10],> 100 µM
same,TGI,[11],> 100 µM
same,TGI,[12],> 100 µM
same,TGI,[13],> 100 µM
same,TGI,[14],62.2 µM
same,TGI,[15],52.8 µM
same,TGI,[16],> 100 µM
same,TGI,[17],66.9 µM
same,TGI,[18],72.6 µM
same,TGI,[19],> 100 µM
same,TGI,[20],> 100 µM
same,TGI,[21],> 100 µM
same,TGI,[22],> 100 µM
same,TGI,[23],76.9 µM
same,TGI,[24],> 100 µM
same,TGI,[25],65.4 µM
same,TGI,[26],> 100 µM
same,TGI,[56],46.5 µM
same,TGI,[27],> 100 µM
same,TGI,[28],55.6 µM
same,TGI,[29],> 100 µM
same,TGI,[30],> 100 µM
same,TGI,[31],> 100 µM
same,TGI,[32],> 100 µM
same,TGI,[34],> 100 µM
same,TGI,[35],77.5 µM
same,TGI,[36],> 100 µM
same,TGI,[37],> 100 µM
same,TGI,[38],> 100 µM
same,TGI,[39],> 100 µM
same,TGI,[40],41.3 µM
same,TGI,[41],> 100 µM
same,TGI,[42],66.1 µM
same,TGI,[43],> 100 µM
same,TGI,[44],> 100 µM
same,TGI,[45],> 100 µM
same,TGI,[46],> 100 µM
same,TGI,[47],> 100 µM
same,TGI,[48],> 100 µM
same,TGI,[58],> 100 µM
same,TGI,[49],> 100 µM
same,TGI,[50],> 100 µM
same,TGI,[51],> 100 µM
same,TGI,[52],> 100 µM
same,TGI,[53],> 100 µM
same,TGI,[54],> 100 µM
same,TGI,[55],> 100 µM
C=C(C)C[C@H](Sc1nc2ccccc2s1)[C@H](C)O,TGI,[1],> 100 µM
same,TGI,[2],> 100 µM
same,TGI,[3],> 100 µM
same,TGI,[4],> 100 µM
same,TGI,[5],> 100 µM
same,TGI,[6],> 100 µM
same,TGI,[8],> 100 µM
same,TGI,[9],98.4 µM
same,TGI,[10],> 100 µM
same,TGI,[11],> 100 µM
same,TGI,[12],> 100 µM
same,TGI,[13],75.7 µM
same,TGI,[14],72 µM
same,TGI,[15],44.9 µM
same,TGI,[16],74.1 µM
same,TGI,[17],> 100 µM
same,TGI,[18],69.9 µM
same,TGI,[19],> 100 µM
same,TGI,[20],> 100 µM
same,TGI,[21],> 100 µM
same,TGI,[22],63.8 µM
same,TGI,[23],43 µM
same,TGI,[24],> 100 µM
same,TGI,[25],> 100 µM
same,TGI,[26],> 100 µM
same,TGI,[56],> 100 µM
same,TGI,[27],> 100 µM
same,TGI,[28],81.9 µM
same,TGI,[29],> 100 µM
same,TGI,[30],> 100 µM
same,TGI,[31],36.8 µM
same,TGI,[32],> 100 µM
same,TGI,[34],> 100 µM
same,TGI,[35],> 100 µM
same,TGI,[36],> 100 µM
same,TGI,[37],> 100 µM
same,TGI,[38],> 100 µM
same,TGI,[39],> 100 µM
same,TGI,[40],> 100 µM
same,TGI,[41],> 100 µM
same,TGI,[42],> 100 µM
same,TGI,[43],> 100 µM
same,TGI,[44],> 100 µM
same,TGI,[45],> 100 µM
same,TGI,[46],> 100 µM
same,TGI,[47],> 100 µM
same,TGI,[48],> 100 µM
same,TGI,[58],> 100 µM
same,TGI,[49],> 100 µM
same,TGI,[50],79 µM
same,TGI,[51],> 100 µM
same,TGI,[52],> 100 µM
same,TGI,[53],> 100 µM
same,TGI,[54],> 100 µM
same,TGI,[55],> 100 µM
O=C(/C=C\c1ccc(-c2ccccc2)cc1)c1cccs1,TGI,[1],> 81 µM
same,TGI,[2],> 100 µM
same,TGI,[3],> 100 µM
same,TGI,[4],> 100 µM
same,TGI,[5],> 100 µM
same,TGI,[6],> 100 µM
same,TGI,[7],12.5 µM
same,TGI,[8],> 100 µM
same,TGI,[9],> 100 µM
same,TGI,[10],> 100 µM
same,TGI,[11],> 100 µM
same,TGI,[12],> 100 µM
same,TGI,[13],> 100 µM
same,TGI,[15],> 31 µM
same,TGI,[16],> 100 µM
same,TGI,[17],> 100 µM
same,TGI,[18],> 100 µM
same,TGI,[19],> 75 µM
same,TGI,[20],> 100 µM
same,TGI,[21],> 100 µM
same,TGI,[22],> 100 µM
same,TGI,[23],> 28.1 µM
same,TGI,[24],> 94.3 µM
same,TGI,[25],> 100 µM
same,TGI,[26],> 100 µM
same,TGI,[56],46.4 µM
same,TGI,[27],> 100 µM
same,TGI,[28],> 30.4 µM
same,TGI,[29],> 100 µM
same,TGI,[30],> 100 µM
same,TGI,[31],> 100 µM
same,TGI,[32],> 100 µM
same,TGI,[33],> 100 µM
same,TGI,[34],> 100 µM
same,TGI,[35],> 100 µM
same,TGI,[57],> 60.4 µM
same,TGI,[36],> 100 µM
same,TGI,[37],> 100 µM
same,TGI,[38],> 100 µM
same,TGI,[39],> 100 µM
same,TGI,[40],> 100 µM
same,TGI,[41],> 100 µM
same,TGI,[42],> 100 µM
same,TGI,[43],> 100 µM
same,TGI,[44],> 100 µM
same,TGI,[45],> 100 µM
same,TGI,[46],> 100 µM
same,TGI,[47],> 50.3 µM
same,TGI,[48],> 100 µM
same,TGI,[58],> 100 µM
same,TGI,[49],> 100 µM
same,TGI,[50],> 27.1 µM
same,TGI,[51],> 100 µM
same,TGI,[52],> 100 µM
same,TGI,[53],> 100 µM
same,TGI,[54],> 100 µM
same,TGI,[55],> 100 µM
